Ten compounds from ChEMBL document CHEMBL1201862, “PubChem BioAssay data set” (2004) can be followed below.

Test systems include HL-60; SNB-75; SW-620; PC-3; SK-MEL-28; MDA-MB-435; RPMI-8226; MCF7; SK-MEL-2; TK-10; U-251; SK-MEL-5; SR; HCC 2998; SNB-19; SF-268; BT-549; CAKI-1; LOX IMVI; M14.
What all share (experiment): growth of human tumour cells (NCI), 48 h

The structures appear in SMILES notation.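 Method: 48-hour compound exposure of cells in 96-well plates, five concentrations, linear interpolation of endpoints. GI50 = concentration required for 50% inhibition of growth.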 Active and inactive are the calls of the source. No stated cut-off is given here; in the data, active = GI50 up to about 1.1 µM and inactive = higher.

`COC(=O)c1c(O)ccc2c1c1c(n2Cc2ccc(Cl)cc2Cl)C(=O)c2ccccc2C1=O`: the GI50 in the assay on HL-60 is 13.8 µM (inactive); in the assay with SNB-75, 17.9 µM (inactive); in the assay with SW-620, 13.4 µM (inactive); with PC-3, 7.74 µM (inactive); in the assay with SK-MEL-28 it was 16.2 µM (inactive); in the assay with MDA-MB-435 it was 7.91 µM (inactive). For the same compound, the GI50 in the assay with RPMI-8226 was 2.88 µM (inactive); in the assay with MCF7 it was 4.09 µM (inactive); with SK-MEL-2, 14.2 µM (inactive); with TK-10 it was 14.9 µM (inactive); in the assay on U-251, 10.8 µM (inactive); in the assay with SK-MEL-5, 13.7 µM (inactive). Also, the GI50 with SR was 3.44 µM (inactive); in the assay on HCC 2998, 3.48 µM (inactive); in the assay on SNB-19 it was 15.7 µM (inactive); in the assay with SF-268, 10.1 µM (inactive); in the assay with BT-549, 13.2 µM (inactive); in the assay on CAKI-1 it was 12.2 µM (inactive). For the same compound, the GI50 in the assay on LOX IMVI is 12.7 µM (inactive); with M14 it was 14.1 µM (inactive).

Turning to `Cc1c(-c2ccccc2)c(C#N)c2nnn(C3CCCCC3)c(=O)n12`, the GI50 in the assay with HL-60 was > 100 µM (inactive); in the assay on SNB-75, 28 µM (inactive); in the assay with SW-620, > 100 µM (inactive); in the assay on PC-3, 20.2 µM (inactive); in the assay on SK-MEL-28 it was > 100 µM (inactive); in the assay on MDA-MB-435, > 100 µM (inactive). The GI50 in the assay with RPMI-8226 is 47.4 µM (inactive); in the assay with MCF7, > 100 µM (inactive); in the assay with SK-MEL-2, 31.6 µM (inactive); in the assay with TK-10, > 100 µM (inactive); in the assay on U-251 it was 53.2 µM (inactive); with SK-MEL-5 it was 72.4 µM (inactive). Also, the GI50 was 24.8 µM (inactive) with SR; > 100 µM (inactive) with HCC 2998; 66.5 µM (inactive) in the assay with SNB-19; > 100 µM (inactive) in the assay on SF-268; > 100 µM (inactive) with BT-549; 0.425 µM (active) with CAKI-1. The GI50 with LOX IMVI was > 100 µM (inactive); with M14, 87.3 µM (inactive).

Consider `OCCOCCO[P+]1(OCCOCCO)n2c3ccc2C(c2ccccc2)=C2C=CC(=N2)C(c2ccccc2)=c2ccc(n21)=C(c1ccccc1)C1=NC(=C3c2ccccc2)C=C1`, for which the GI50 with HL-60 is 0.0235 µM (active); in the assay on SNB-75 it was 0.0491 µM (active); in the assay on SW-620, 0.184 µM (active); with PC-3, 0.107 µM (active); in the assay on SK-MEL-28 it was 0.0631 µM (active); with MDA-MB-435, 0.0316 µM (active). In addition, the GI50 in the assay on RPMI-8226 is 0.0142 µM (active); in the assay with MCF7 it was 0.109 µM (active); in the assay with SK-MEL-2, 0.0395 µM (active); in the assay with TK-10, 0.426 µM (active); in the assay on SK-MEL-5, 0.0506 µM (active); in the assay on SR, 1 µM (active). In addition, the GI50 was 0.0378 µM (active) in the assay on HCC 2998; < 0.01 µM (active) in the assay on SNB-19; 0.0618 µM (active) in the assay on SF-268; 0.0385 µM (active) in the assay on BT-549; 1.68 µM (inactive) in the assay on CAKI-1; 0.0989 µM (active) in the assay with LOX IMVI. For the same compound, the GI50 in the assay with M14 was 0.272 µM (active).

As to `COc1cccc(C(=O)Nc2c3ccccc3nc3ccccc23)c1OC`, the GI50 in the assay on HL-60 was > 100 µM (inactive); with SNB-75, 17.5 µM (inactive); with SW-620 it was > 100 µM (inactive); with PC-3, > 100 µM (inactive); in the assay on SK-MEL-28, > 100 µM (inactive); in the assay on MDA-MB-435, > 100 µM (inactive). In addition, the GI50 is > 100 µM (inactive) in the assay on RPMI-8226; > 100 µM (inactive) in the assay with MCF7; > 100 µM (inactive) with SK-MEL-2; > 100 µM (inactive) in the assay on TK-10; > 100 µM (inactive) in the assay on U-251; 29.2 µM (inactive) in the assay on SK-MEL-5. For the same compound, the GI50 in the assay with SR is > 100 µM (inactive); in the assay on HCC 2998 it was > 100 µM (inactive); in the assay on SNB-19 it was 62.2 µM (inactive); in the assay on SF-268, 74.1 µM (inactive); with BT-549 it was > 100 µM (inactive); with CAKI-1, > 100 µM (inactive). The GI50 in the assay with LOX IMVI and in the assay with M14 was > 100 µM (inactive) throughout.

Consider `O=C(Oc1ccccc1)c1cc2cc(CCl)ccc2oc1=O`, for which the GI50 with HL-60 was 18.2 µM (inactive); with SNB-75, 21.5 µM (inactive); with SW-620, 61.9 µM (inactive); in the assay with PC-3, 14.2 µM (inactive); in the assay on SK-MEL-28, 13.3 µM (inactive); in the assay with MDA-MB-435, 19.4 µM (inactive). Besides, the GI50 in the assay with RPMI-8226 is 33 µM (inactive); with MCF7, 20.1 µM (inactive); with SK-MEL-2, 3.17 µM (inactive); in the assay with TK-10, 17.5 µM (inactive); in the assay with U-251 it was 44.6 µM (inactive); in the assay with SK-MEL-5, 12.8 µM (inactive). In addition, the GI50 in the assay with SR was 28.1 µM (inactive); with HCC 2998, 20.5 µM (inactive); in the assay with SNB-19 it was 71.6 µM (inactive); in the assay on SF-268 it was 23.2 µM (inactive); with BT-549, 64.3 µM (inactive); in the assay with CAKI-1, 14.5 µM (inactive). Besides, the results for the GI50 in the assay on LOX IMVI and with M14 were 49.4 µM (inactive) and 13.1 µM (inactive), respectively.

As for `NC(=O)c1nnn(Cc2cc(Cl)c(C(=O)c3ccc(Cl)cc3)c(Cl)c2)c1N` [CARBOXYAMIDOTRIAZOLE], the GI50 was 14.8 µM (inactive) in the assay on HL-60; 32.8 µM (inactive) in the assay with SNB-75; 27.1 µM (inactive) in the assay with SW-620; 19.5 µM (inactive) in the assay on PC-3; 27.9 µM (inactive) in the assay on SK-MEL-28; 11 µM (inactive) in the assay on MDA-MB-435. For the same compound, the GI50 with RPMI-8226 is 25.4 µM (inactive); with MCF7, 11.4 µM (inactive); with SK-MEL-2 it was 11.1 µM (inactive); in the assay on TK-10, 20.6 µM (inactive); in the assay with U-251 it was 18.2 µM (inactive); with SK-MEL-5 it was 5.96 µM (inactive). Moreover, the GI50 in the assay with SR is 6.75 µM (inactive); with HCC 2998, > 9.1 µM (inactive); in the assay with SNB-19, 24.4 µM (inactive); with SF-268, 13 µM (inactive); in the assay with BT-549, 21.6 µM (inactive); in the assay with CAKI-1 it was 12.4 µM (inactive). Also, the GI50 in the assay with LOX IMVI was 22 µM (inactive); in the assay on M14, 19.6 µM (inactive).

`O=C1c2ccccc2C(=O)c2c(/C=C\N3CCCCC3)ccnc21`: the GI50 in the assay on HL-60 is 3.01 µM (inactive); in the assay with SNB-75, 2.01 µM (inactive); in the assay with SW-620, 0.839 µM (active); in the assay with PC-3, 0.879 µM (active); in the assay on SK-MEL-28, 1.11 µM (active); in the assay on MDA-MB-435, 0.327 µM (active). Also, the GI50 in the assay with RPMI-8226 was 2.29 µM (inactive); in the assay on MCF7, 0.869 µM (active); in the assay with SK-MEL-2, 3.72 µM (inactive); in the assay on TK-10, 15.2 µM (inactive); in the assay with U-251, 2.99 µM (inactive); in the assay on SK-MEL-5, 0.42 µM (active). Moreover, the GI50 with SR was 8.36 µM (inactive); in the assay on HCC 2998, 2.72 µM (inactive); in the assay on SNB-19, 4.91 µM (inactive); with SF-268, 12 µM (inactive); with BT-549 it was 0.889 µM (active); in the assay on CAKI-1 it was 16.9 µM (inactive). The GI50 with LOX IMVI was 0.337 µM (active); with M14, 0.578 µM (active).

Take `COc1ccc(Br)c(/C=N\c2cccc3cc(OC)c(OC)cc23)c1`: the GI50 with HL-60 is 0.865 µM (active); in the assay on SNB-75 it was 38.8 µM (inactive); with SW-620, 7.08 µM (inactive); in the assay on PC-3, 11.1 µM (inactive); in the assay with SK-MEL-28, 13.3 µM (inactive); with MDA-MB-435, 2.8 µM (inactive). The GI50 was 3.44 µM (inactive) in the assay on RPMI-8226; 2.33 µM (inactive) in the assay with MCF7; 42.3 µM (inactive) in the assay on SK-MEL-2; 28.1 µM (inactive) in the assay with TK-10; 2.99 µM (inactive) with U-251; 17.5 µM (inactive) in the assay with SK-MEL-5. The GI50 with SR is 2.42 µM (inactive); in the assay on HCC 2998, 28.4 µM (inactive); with SNB-19, 13.2 µM (inactive); in the assay on SF-268 it was 7 µM (inactive); with BT-549, 8.3 µM (inactive); in the assay with CAKI-1, > 82.4 µM (inactive). The GI50 in the assay on LOX IMVI is 4.57 µM (inactive); in the assay on M14, 3.84 µM (inactive).

With `CC(=O)O[C@H]1C(=O)[C@@]2(C)[C@H]([C@H](OC(=O)c3ccccc3)[C@]3(O)C[C@H](OC(=O)[C@H](O)[C@@H](NC(=O)C(C)(O)C(C)O)c4ccccc4)C(C)=C1C3(C)C)[C@]1(OC(C)=O)CO[C@@H]1C[C@@H]2O` (stereo partly drawn), the GI50 was 0.0859 µM (active) in the assay with HL-60; 0.0514 µM (active) with SNB-75; 0.195 µM (active) in the assay with SW-620; 0.226 µM (active) in the assay on PC-3; 0.0352 µM (active) in the assay on MDA-MB-435; 0.0865 µM (active) in the assay with RPMI-8226. For the same compound, the GI50 is 0.076 µM (active) in the assay with MCF7; 0.124 µM (active) in the assay with SK-MEL-2; 5.69 µM (inactive) with TK-10; 0.239 µM (active) with U-251; 0.207 µM (active) with SK-MEL-5; 0.133 µM (active) in the assay with SR. Also, the GI50 in the assay on HCC 2998 is 0.141 µM (active); with SNB-19 it was 0.796 µM (active); with SF-268 it was 0.31 µM (active); in the assay on BT-549 it was 0.142 µM (active); in the assay with CAKI-1, 15.5 µM (inactive); in the assay on LOX IMVI, 0.607 µM (active). In addition, in the assay on M14, the GI50 was 0.337 µM (active).

With `O=C(O)CSc1ccccc1C(=O)O`, the GI50 in the assay with HL-60 is 6.03 µM (inactive); in the assay with SNB-75, > 100 µM (inactive); in the assay with SW-620, > 100 µM (inactive); in the assay on PC-3 it was > 100 µM (inactive); in the assay on SK-MEL-28, > 100 µM (inactive); with MDA-MB-435, > 100 µM (inactive). Moreover, the GI50 in the assay with RPMI-8226 is > 100 µM (inactive); in the assay with MCF7, > 100 µM (inactive); in the assay with SK-MEL-2, > 100 µM (inactive); with TK-10, 22.8 µM (inactive); in the assay on U-251, > 100 µM (inactive); in the assay with SK-MEL-5 it was > 100 µM (inactive). The GI50 with SR was > 100 µM (inactive); with HCC 2998 it was 29.6 µM (inactive); in the assay on SNB-19 it was > 100 µM (inactive); in the assay on SF-268, > 100 µM (inactive); in the assay on BT-549 it was > 100 µM (inactive); with CAKI-1, > 100 µM (inactive). For the same compound, the GI50 in the assay on LOX IMVI and with M14 was > 100 µM (inactive) in each case.
